Experimental data as given in the NIST ThermoML archive (doi:10.1016/j.jct.2015.02.001).
Values joined by “and” are separate entries in the source; they are usually repeats but may differ in a detail not shown here. Equal values may be shown once.

Settings: Liquid, Transpiration method

COc1ccccc1C [1-methoxy-2-methylbenzene]
Settings	vapor or sublimation pressure
275.8 K	0.035 kPa
277.7 K	0.0405 kPa
278.7 K	0.0432 kPa
280.6 K	0.0504 kPa
282.6 K	0.0599 kPa
285.7 K	0.0735 kPa
286.8 K	0.0821 kPa
290.2 K	0.1038 kPa
293.4 K	0.1308 kPa
296.2 K	0.1606 kPa
298.2 K	0.1819 kPa
300.2 K	0.2111 kPa and 0.2117 kPa
303.3 K	0.2601 kPa
305.1 K	0.2865 kPa
308 K	0.3491 kPa

COc1cccc(C)c1 [1-methoxy-3-methylbenzene]
Settings	vapor or sublimation pressure [kPa]
276.7 K	0.0285
277.8 K	0.0314
280.6 K	0.0395
284.7 K	0.0541
289.4 K	0.0804
291.9 K	0.094
297.7 K	0.1433
301.1 K	0.1806
304.1 K	0.2286
305 K	0.2433
308 K	0.3006
310 K	0.3363
312.2 K	0.4058

COc1ccc(C)cc1 [1-methoxy-4-methylbenzene]
Settings	vapor or sublimation pressure
275.2 K	0.0275 kPa
276.4 K	0.031 kPa
277.2 K	0.0326 kPa
278.8 K	0.0379 kPa
281.7 K	0.0478 kPa
284.8 K	0.0612 kPa
287.5 K	0.0759 kPa
289.2 K	0.0861 kPa
290.4 K	0.095 kPa
291.2 K	0.0997 kPa
291.3 K	0.1015 kPa
294.2 K	0.1267 kPa
296.2 K	0.1436 kPa
297.1 K	0.1563 kPa
299.2 K	0.1817 kPa
300.1 K	0.1942 kPa and 0.2003 kPa
301.1 K	0.2085 kPa
303.1 K	0.2465 kPa
305 K	0.2782 kPa
308 K	0.3386 kPa
